# Data from patent US6894061B2, “Substituted dihydrophenanthridinesulfonamides” (Wyeth, priority 2002, dated 2005).
# What was measured:
# creatine kinase = assay: Creatine kinase (CK) test procedure in Ad5-wt-ERα infected HAECT-1 cells; type: cell-based, human; conditions: Homo sapiens, HAECT1, Ad5-wt-ERα infected HAECT-1 cells; for Emax at 10 µM / Emax: read-out: Creatin Kinase Efficacy (%); for EC50: read-out: Creatin Kinase EC50
# Procedure: (§1) After four hours, cells were washed with EBM-BSA and incubated overnight in the same medium. Following overnight incubation, cells were washed with EBM-BSA and infected for 2 hours with 6 mL of a 1:10 dilution of Ad5-3x(NFκB).Luc virus (Adenovirus luciferase expression vector driven by 3 repeats of the MHC NFκb site 5′ to the thymidine kinase promoter) in EBM-BSA. After two hours, cells were washed and incubated at 34° C. for 1 hour. […] Control (no ER infection) cells were processed as above without Ad5-wt-hERα virus infection.
# (§2) ERα infected HAECT-1 cells or control cells were thawed, diluted 42× in warm EBM-BSA, plated into 96-well plates at 0.1 mL/well and incubated for 4 hours at 34° C. Test compounds were added to the cells as 2× stocks in EBM-BSA containing 2 ng/mL IL-1β (R&D Systems) and the 96-well plates were returned to the incubator (34° C.). After 15-20 hours, 100 μL aliquots of media were removed from the cells and assayed for IL-6 content using a BioSource human IL-6 ELISA Kit. Cells were subsequently washed with 300 μL of Dulbecco's phosphate buffered saline and lysed in 50 μL of Cell Culture Lysis Reagent (Promega). Luciferase was determined on a Wallac Victor^2 Luminometer (Gaithersburg, Md.) using 10 μL of lysate and mixing with 100 μL of Promega Luciferase Assay reagent. Creatine kinase was determined from the rate of increase in A340 following addition of 100 μL of CK assay reagent (Sigma, cat. No 47-10) to the remainder of the cell lysate.
# (§3) For IC50 and EC50 calculations, mean IL-6, luciferase or CK values versus log10 of the compound concentration were fitted to a four parameter logistic equation. The IC50/EC50 value, ‘Hill slope’, upper and lower limits of the curve were iteratively estimated.
# ER/NF-κB = ER/NF-κB luciferase reporter in Ad5-wt-ERα infected HAECT-1 cells; type: cell-based, human; conditions: Homo sapiens, HAECT1, IL-1β; for Emax: read-out: ER/NFκB Efficacy (%)*; for IC50: read-out: ER/NFκB IC50
# Procedure: as §1, §2, §3
Compound,IC50 (ER/NF-κB),melting point,EC50 (creatine kinase),Emax at 10 µM (creatine kinase),Emax (ER/NF-κB),Emax (creatine kinase)
"C[C@@H]1c2ccccc2-c2ccccc2N1S(=O)(=O)c1ccc(O)cc1 (single isomer, unassigned) [Example 3]",1510 nM,181 to 183 °C,,< 35%,97%,
"O=S(=O)(c1ccc(O)cc1)N1c2ccc(Br)cc2-c2ccccc2C1c1ccccc1 (stereo not shown) [Example 12, 4-[(2-Bromo-6-phenylphenanthridin-5(6H)-yl)sulfonyl]phenol]",682 nM,262 to 265 °C,,< 35%,93%,
"Cc1cc(S(=O)(=O)N2c3ccccc3-c3ccc(F)cc3C2C)ccc1O (stereo not shown) [Example 35, 4-[(8-Fluoro-6-methylphenanthridin-5(6H)-yl)sulfonyl]-2-methylphenol]",707 nM,196 °C,,< 35%,94%,
"CC(C)(C)C1c2ccccc2-c2cc(Br)ccc2N1S(=O)(=O)c1ccc(O)cc1 (stereo not shown) [Example 17, 4-[(2-Bromo-6-tert-butylphenanthridin-5(6H)-yl)sulfonyl]phenol]",58 nM,245 to 247 °C,,< 35%,76%,
"CC(C)(C)[C@@H]1c2ccccc2-c2ccccc2N1S(=O)(=O)c1ccc(O)cc1 [Example 15, 4-{[(R)-6-tert-Butylphenanthridin-5(6H)-yl]sulfonyl}phenol]",16 nM,187 to 189 °C,,< 35%,99%,
"C[C@H]1c2ccccc2-c2ccccc2N1S(=O)(=O)c1ccc(O)cc1 (single isomer, unassigned) [Example 2]",40 nM,176 to 178 °C,420 nM,,103%,28%
"Cc1cc(S(=O)(=O)N2c3ccccc3-c3cccc(O)c3C2C)ccc1O (stereo not shown) [Example 38, 5-[(4-Hydroxy-3-methylphenyl)sulfonyl]-6-methyl-5,6-dihydrophenanthridin-7-ol]",> 10000 nM,258 °C,,< 35%,,
"Cc1ccc2c(c1)C(C)N(S(=O)(=O)c1ccc(O)cc1)c1ccccc1-2 (stereo not shown) [Example 60, 4-[(6,8-Dimethylphenanthridin-5(6H)-yl)sulfonyl]phenol]",257 nM,111 to 113 °C,,< 35%,95%,
"CCC1c2ccc(C)cc2-c2ccccc2N1S(=O)(=O)c1ccc(O)cc1 (stereo not shown) [Example 43, 4-[(6-Ethyl-9-methylphenanthridin-5(6H)-yl)sulfonyl]phenol]",> 10000 nM,167 to 170 °C,,< 35%,,
"CCC1c2cc(F)ccc2-c2cc(C)ccc2N1S(=O)(=O)c1ccc(O)cc1 (stereo not shown) [Example 51, 4-[(6-Ethyl-8-fluoro-2-methylphenanthridin-5(6H)-yl)sulfonyl]phenol]",56 nM,197 to 200 °C,77 nM,,106%,27%
"CCCCC1c2ccccc2-c2cc(Br)ccc2N1S(=O)(=O)c1ccc(O)cc1 (stereo not shown) [Example 8, 4-[(2-Bromo-6-butylphenanthridin-5(6H)-yl)sulfonyl]phenol]",672 nM,178 to 180 °C,,< 35%,89%,
"CC1c2cc(F)ccc2-c2ccccc2N1S(=O)(=O)c1ccc(O)c(O)c1 (stereo not shown) [Example 50, 4-[(8-Fluoro-6-methylphenanthridin-5(6H)-yl)sulfonyl]benzene-1,2-diol]",> 10000 nM,165 to 170 °C,,< 35%,,
"CC1c2ccccc2-c2ccccc2N1S(=O)(=O)c1ccc(O)c(F)c1 (stereo not shown) [Example 56, 2-Fluoro-4-[(6-methylphenanthridin-5(6H)-yl)sulfonyl]phenol]",1440 nM,172 to 174 °C,750 nM,,100%,34%
"CC1c2cc(Cl)ccc2-c2ccccc2N1S(=O)(=O)c1ccc(O)cc1 (stereo not shown) [Example 61, 4-[(8-Chloro-6-methylphenanthridin-5(6H)-yl)sulfonyl]phenol]",,176 to 178 °C,,,,
"CCC1c2cc(F)ccc2-c2cc(-c3cccnc3)ccc2N1S(=O)(=O)c1ccc(O)cc1 (stereo not shown) [Example 127, 4-[(6-Ethyl-8-fluoro-2-pyridin-3-ylphenanthridin-5(6H)-yl)sulfonyl]phenol]",,195 to 200 °C,,,,

# Now from value to compound, other results behind:
IC50 (ER/NF-κB),melting point,EC50 (creatine kinase),Compound,Emax at 10 µM (creatine kinase),Emax (ER/NF-κB),Emax (creatine kinase)
764 nM,128 °C,,"CCC1c2cc(F)ccc2-c2ccccc2N1S(=O)(=O)c1ccc(OC(=O)CC(C)(C)C)cc1 (stereo not shown) [Example 53, 4-[(6-Ethyl-8-fluorophenanthridin-5(6H)-yl)sulfonyl]phenyl 3,3-dimethylbutanoate]",< 35%,76%,
85 nM,220 to 221 °C,,"CCC1c2cc(F)ccc2-c2cc(Br)ccc2N1S(=O)(=O)c1ccc(O)cc1 (stereo not shown) [Example 44, 4-[(2-Bromo-6-ethyl-8-fluorophenanthridin-5(6H)-yl)sulfonyl]phenol]",< 35%,94%,
815 nM,181 °C,429 nM,"CCC1c2cc(F)ccc2-c2ccccc2N1S(=O)(=O)c1ccc(O)c(C)c1 (stereo not shown) [Example 41, 4-[(6-Ethyl-8-fluorophenanthridin-5(6H)-yl)sulfonyl]-2-methylphenol]",,75%,24%
120 nM,213 to 215 °C,,"CC1c2cc(Cl)ccc2-c2cc(Br)ccc2N1S(=O)(=O)c1ccc(O)cc1 (stereo not shown) [Example 62, 4-[(2-Bromo-8-chloro-6-methylphenanthridin-5(6H)-yl)sulfonyl]phenol]",< 35%,90%,
,113 to 115 °C,,"CCOC(=O)c1cc(S(=O)(=O)N2c3ccccc3-c3ccccc3C2C)ccc1OCC (stereo not shown) [Example 25, Ethyl 2-ethoxy-5-[(6-methylphenanthridin-5(6H)-yl)sulfonyl]benzoate]",,,
,225 to 230 °C,,"CC1c2ccccc2-c2ccccc2N1S(=O)(=O)c1ccc(O)c(C(=O)O)c1 (stereo not shown) [Example 24, 2-Hydroxy-5-[(6-methylphenanthridin-5(6H)-yl)sulfonyl]benzoic acid]",,,
423 nM,111 to 112 °C,839 nM,"CCC(=O)Oc1ccc(S(=O)(=O)N2c3ccccc3-c3ccc(F)cc3C2CC)cc1 (stereo not shown) [Example 54, 4-[(6-Ethyl-8-fluorophenanthridin-5(6H)-yl)sulfonyl]phenyl propionate]",,87%,24%
> 10000 nM,182 to 184 °C,,"CC1c2ccccc2-c2ccccc2N1S(=O)(=O)c1ccc(O)c(CO)c1 (stereo not shown) [Example 26, 2-(Hydroxymethyl)-4-[(6-methylphenanthridin-5(6H)-yl)sulfonyl]phenol]",< 35%,,
108 nM,192 to 194 °C,757 nM,"CC(C)(C)C1c2ccccc2-c2ccccc2N1S(=O)(=O)c1ccc(O)cc1 (stereo not shown) [Example 14, 4-[(6-tert-Butylphenanthridin-5(6H)-yl)sulfonyl]phenol]",,105%,50%
61 nM,208 to 210 °C,,"O=S(=O)(c1ccc(O)cc1)N1c2ccccc2-c2ccccc2[C@H]1c1ccccc1 (single isomer, unassigned) [Example 10]",< 35%,95%,
83 nM,167 to 169 °C,,"CCC1c2c(C)cccc2-c2ccccc2N1S(=O)(=O)c1ccc(O)cc1 (stereo not shown) [Example 42, 4-[(6-ethyl-7-methylphenanthridin-5(6H)-yl)sulfonyl]phenol]",< 35%,99%,
163 nM,115 to 118 °C,,"CC[C@@H](C)[C@H]1c2ccccc2-c2ccccc2N1S(=O)(=O)c1ccc(O)cc1 (relative stereo) [Example 22, 4-{[(S*)-6-[(R*)-1-methylpropyl]phenanthridin-5(6H)-yl]sulfonyl}phenol]",< 35%,96%,
470 nM,149 to 151 °C,,"CCCCC1c2ccccc2-c2ccccc2N1S(=O)(=O)c1ccc(O)cc1 (stereo not shown) [Example 7, 4-[(6-Butylphenanthridin-5(6H)-yl)sulfonyl]phenol]",< 35%,7%,
254 nM,218 to 220 °C,,"CCC1c2ccccc2-c2cc(-c3cccc4c3oc3ccccc34)ccc2N1S(=O)(=O)c1ccc(O)cc1 (stereo not shown) [Example 31, 4-[(2-Dibenzo[b,d]furan-4-yl-6-ethylphenanthridin-5(6H)-yl)sulfonyl]phenol]",< 35%,108%,
